The target of the assay is T1, IRAK4 (Homo sapiens, UniProt Q9NWZ3).
T1 construct: endogenous in cells; host or cells: OCI-LY10
T1 sequence (Q9NWZ3 1-460): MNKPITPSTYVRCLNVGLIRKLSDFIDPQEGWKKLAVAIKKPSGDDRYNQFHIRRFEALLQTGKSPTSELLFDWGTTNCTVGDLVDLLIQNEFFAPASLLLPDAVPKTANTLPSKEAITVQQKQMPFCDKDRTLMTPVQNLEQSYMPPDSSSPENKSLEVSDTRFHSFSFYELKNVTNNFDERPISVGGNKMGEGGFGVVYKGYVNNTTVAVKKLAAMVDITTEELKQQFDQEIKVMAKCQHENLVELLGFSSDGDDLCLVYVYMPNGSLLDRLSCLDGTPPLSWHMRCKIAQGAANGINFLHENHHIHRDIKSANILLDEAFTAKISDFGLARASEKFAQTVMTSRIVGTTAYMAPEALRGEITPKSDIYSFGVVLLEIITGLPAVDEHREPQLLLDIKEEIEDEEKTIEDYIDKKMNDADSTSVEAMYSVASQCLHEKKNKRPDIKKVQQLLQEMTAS
The assay is described as follows: IRAK4 MSD Degradation in OCI-LY10. The format is cell-based. Particulars: OCI-LY10 cells, Meso Scale Discovery, incubated 4 to 24 hours. The gist of the method: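 IRAK4 degradation was quantified by Meso Scale electrochemiluminescence (anti-IRAK4 capture and detection antibodies) in lysates of treated OCI-LY10 cells. Compounds were dosed at 8 concentrations (1:3 dilutions, top 1 to 10 μM) for 4 to 24 h; DC50 derived by three-parameter logistic fitting.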

Each structure is given as a SMILES string. A value given as a limit tells only on which side of the number the result lay.

On to `COc1cc2nn([C@H]3CC[C@H](CN4CCC(c5ccc6c(c5Cl)n(C)c(=O)n6C5CCC(=O)NC5=O)CC4)CC3)cc2cc1NC(=O)c1cccc(C(F)(F)F)n1` (some centres unmarked) [I-177], for which the half-maximal degradation concentration (DC50) (usually the midpoint of the concentration-degradation curve) was below 10 nM.

In turn, `Cn1c(=O)n(C2CCC(=O)NC2=O)c2cccc(C3CCN(C[C@H]4C[C@H](n5cc6cc(NC(=O)c7cccc(C(F)(F)F)n7)ccc6n5)C4)CC3)c21` (some centres unmarked) [I-140] returned a 50% degradation concentration (DC50) of 100 to 200 nM.

`COc1cc2nc([C@H]3CC[C@H](CN4CCC(c5cccc6c5n(C)c(=O)n6C5CCC(=O)NC5=O)CC4)CC3)sc2cc1NC(=O)c1cncc(C#N)c1` (some centres unmarked) [I-185] yielded a DC50 below 10 nM.

For `Cn1c(=O)n(C2CCC(=O)NC2=O)c2cccc(C3CCN(C[C@H]4CC[C@H](n5cc6cc(NC(=O)c7cccc(C(F)(F)F)n7)ccc6n5)CC4)CC3)c21` (some centres unmarked) [I-57], the DC50 is below 10 nM.

`Cc1cccc(C(=O)Nc2cc3sc([C@H]4CC[C@H](C(=O)N5CC6(CC(CCNc7cccc8c7C(=O)N(C7CCC(=O)NC7=O)C8=O)C6)C5)CC4)nc3cc2C(C)(C)O)n1` (some centres unmarked) [I-469]: the DC50 was in the range of 100 to 200 nM.

In turn, `O=C1CCN(c2cncc3cc(C4CCN(C[C@H]5CC[C@H](n6cc7cc(NC(=O)c8cccc(C(F)(F)F)n8)ccc7n6)CC5)CC4)ccc23)C(=O)N1` [I-321] had a DC50 above 200 nM.

The molecule `COc1cc2nn([C@H]3CC[C@H](CN4CCC(c5cc(Cl)cc6c5n(C)c(=O)n6C5CCC(=O)NC5=O)CC4)CC3)cc2cc1NC(=O)c1cccc(C(F)(F)F)n1` (some centres unmarked) [I-36] yielded a DC50 below 10 nM.

As for `COc1cc2nn([C@H]3CC[C@H](CN4C[C@H]5C[C@@H]4CN5c4cccc5c(N6CCC(=O)NC6=O)cncc45)CC3)cc2cc1NC(=O)c1cccc(C(F)(F)F)n1` [I-155], the DC50 fell in the range of 10 to 50 nM.

`CC(C)Nc1cc(-n2ccc3cc(C#N)cnc32)ncc1C(=O)N[C@H]1CC[C@H](CN2CCN(c3cccc4c(N5CCC(=O)NC5=O)cncc34)CC2)CC1` [I-372] gave a DC50 below 10 nM.

With `Cc1cccc(C(=O)Nc2cc3sc([C@H]4CC[C@H](CN5C[C@@H]6C[C@H]5CN6CCNc5cccc6c5C(=O)N(C5CCC(=O)NC5=O)C6=O)CC4)nc3cc2C(C)(C)O)n1` (some centres unmarked) [I-473], the DC50 was in the range of 100 to 200 nM.

For the molecule `CC(C)Nc1cc(-c2ccc3cc(C#N)cnn23)ncc1C(=O)N[C@H]1CC[C@H](CN2CCN(c3cccc4c3n(C)c(=O)n4C3CCC(=O)NC3=O)CC2)CC1` (some centres unmarked) [I-362], the DC50 is below 10 nM.

On to `CC(C)(O)c1cc2nc([C@H]3CC[C@H](C(=O)N4CCN(CCNc5cccc6c5C(=O)N(C5CCC(=O)NC5=O)C6=O)CC4)CC3)sc2cc1NC(=O)c1cncc(C#N)c1` (some centres unmarked) [I-431], for which the DC50 was above 200 nM.

In turn, `Cn1c(=O)n(C2CCC(=O)NC2=O)c2cccc(N3CCN(C[C@H]4CC[C@H](n5cc6cc(NC(=O)c7cccc(C(F)(F)F)n7)ccc6n5)CC4)C(C)(C)C3)c21` (some centres unmarked) [I-324] came in with a DC50 of 10 to 50 nM.

With `COc1cncc(C(=O)Nc2cc3sc([C@H]4CC[C@H](CN(C)CCCCNc5cccc6c5C(=O)N(C5CCC(=O)NC5=O)C6=O)CC4)nc3cc2OC)c1` (some centres unmarked) [I-449], the half-maximal degradation concentration (DC50) is above 200 nM.

`COc1cc2nn([C@H]3CC[C@H](CN4CCC(c5cccc6c5n(C)c(=O)n6C5CCC(=O)NC5=O)CC4(C)C)CC3)cc2cc1NC(=O)c1cccc(C(F)(F)F)n1` (some centres unmarked) [I-424] registered a DC50 below 10 nM.

Turning to `COc1cc2nn([C@H]3CC[C@H](CN4CCN(c5c(OC)ccc6c(N7CCC(=O)NC7=O)cncc56)CC4)CC3)cc2cc1NC(=O)c1cccc(C(F)(F)F)n1` [I-332], the DC50 was 10 to 50 nM.

`Cn1c(=O)n(C2CCC(=O)NC2=O)c2cccc(N3CCN(C[C@H]4CC[C@H](n5cc6cc(NC(=O)c7cccc(C(F)(F)F)n7)c(F)cc6n5)CC4)CC3)c21` (some centres unmarked) [I-359] displayed a DC50 below 10 nM.

With `COc1cc2nn([C@H]3CC[C@H](CN4CCC(O[C@H]5C[C@@H](c6cccc7c6n(C)c(=O)n7C6CCC(=O)NC6=O)C5)CC4)CC3)cc2cc1NC(=O)c1cccc(C(F)(F)F)n1` (some centres unmarked) [I-385], the DC50 is 10 to 50 nM.

`COc1cc2nn([C@H]3CC[C@H](CN4CCC5(CC4)CCN(c4cccc6c4n(C)c(=O)n6C4CCC(=O)NC4=O)CC5)CC3)cc2cc1NC(=O)c1cncc(C#N)c1` (some centres unmarked) [I-207] returned a DC50 below 10 nM.

Consider `Cn1c(=O)n(C2CCC(=O)NC2=O)c2cccc(C#CCN3CCN(C[C@H]4CC[C@H](n5cc6cc(NC(=O)c7cccc(C(F)(F)F)n7)c(C(C)(C)O)cc6n5)CC4)CC3)c21` (some centres unmarked) [I-326], for which the DC50 was below 10 nM.

`Cn1c(=O)n(C2CCC(=O)NC2=O)c2cccc(C3CCN(C[C@H]4CC[C@H](n5cc6cc(NC(=O)c7cccc(C(F)(F)F)n7)c(C(F)(F)F)cc6n5)CC4)CC3)c21` (some centres unmarked) [I-76] returned a DC50 of 10 to 50 nM.

On to `Cc1cccc(C(=O)Nc2cc3sc([C@H]4CC[C@H](CN5CCN(CCNc6cccc7c6C(=O)N(C6CCC(=O)NC6=O)C7=O)[C@@H](C)C5)CC4)nc3cc2C(C)(C)O)n1` (some centres unmarked) [I-467], for which the DC50 lay in the range of 10 to 50 nM.

In the case of `CN(C[C@H]1CC[C@H](n2cc3cc(NC(=O)c4cccc(C(F)(F)F)n4)ncc3n2)CC1)C1CCN(c2cccc3c(N4CCC(=O)NC4=O)cncc23)CC1` [I-79], the DC50 was above 200 nM.

`Cc1ccc2c(c1C1CCN(C[C@H]3C[C@H](n4cc5cc(NC(=O)c6cccc(C(F)(F)F)n6)ccc5n4)C3)CC1)n(C)c(=O)n2C1CCC(=O)NC1=O` (some centres unmarked) [I-148] displayed a DC50 of 100 to 200 nM.

On to `COc1cc2nn([C@H]3CC[C@H](CN4CC[C@@H](c5cccc6c5n(C)c(=O)n6C5CCC(=O)NC5=O)C4)CC3)cc2cc1NC(=O)c1cccc(C(F)(F)F)n1` (some centres unmarked) [I-428], for which the DC50 is below 10 nM.

With `COc1cc2nn([C@H]3CC[C@H](CN4CCN(c5ccc(N6CCC(=O)NC6=O)cn5)CC4)CC3)cc2cc1NC(=O)c1cccc(C(F)(F)F)n1` [I-313], the DC50 was above 200 nM.

On to `Cn1c(=O)n(C2CCC(=O)NC2=O)c2ccc(C3CCN(C[C@H]4CC[C@H](n5cc6cc(NC(=O)c7cccc(C(F)(F)F)n7)ncc6n5)CC4)CC3)c(Cl)c21` (some centres unmarked) [I-178], for which the DC50 was above 200 nM.

In turn, `CN(C(=O)[C@H]1CC[C@H](n2cc3cc(NC(=O)c4cccc(C(F)(F)F)n4)ncc3n2)CC1)C1CCN(c2cccc3c2n(C)c(=O)n3C2CCC(=O)NC2=O)CC1` (some centres unmarked) [I-187] showed a DC50 below 10 nM.

On to `N#Cc1cc2nn([C@H]3CC[C@H](CN4CCC(c5cccc6c(N7CCC(=O)NC7=O)cncc56)CC4)CC3)cc2cc1NC(=O)c1cccc(C(F)(F)F)n1` [I-213], for which the half-maximal degradation concentration (DC50) is below 10 nM.

On to `Cn1c(=O)n(C2CCC(=O)NC2=O)c2cccc(N3C[C@@H]4C[C@H]3CN4C[C@H]3CC[C@H](n4cc5cc(NC(=O)c6cccc(C(F)(F)F)n6)c(C(C)(C)O)cc5n4)CC3)c21` (some centres unmarked) [I-225], for which the DC50 is below 10 nM.

As for `COc1cc2nn([C@H]3C[C@@H](CN(C)C4CCN(c5cccc6c5n(C)c(=O)n6C5CCC(=O)NC5=O)CC4)C3)cc2cc1NC(=O)c1cccc(C(F)(F)F)n1` (some centres unmarked) [I-32, N-[2-[3-[[[1-[1-(2,6-dioxo-3-piperidyl)-3-methyl-2-oxo-benzimidazol-4-yl]-4-piperidyl]-methyl-amino]methyl]cyclobutyl]-6-methoxy-indazol-5-yl]-6-(trifluoromethyl)pyridine-2-carboxamide], the DC50 is below 10 nM.

The molecule `Cn1c(=O)n(C2CCC(=O)NC2=O)c2cccc(C3CCN(C[C@H]4CC[C@H](n5cc6cc(NC(=O)c7cncc(C#N)c7)c(N7C[C@H]8C[C@@H]7CO8)cc6n5)CC4)CC3)c21` (some centres unmarked) [I-212] returned a DC50 above 200 nM.

In turn, `COc1cc2nc([C@H]3CC[C@H](CN(C)CCCCNc4cccc5c4C(=O)N(C4CCC(=O)NC4=O)C5=O)CC3)sc2cc1NC(=O)c1cncc(C)c1` (some centres unmarked) [I-460] yielded a DC50 above 200 nM.

Consider `N#Cc1cc2nn([C@H]3CC[C@H](CN4CCN(c5cccc6c(N7CCC(=O)NC7=O)cncc56)CC4)CC3)cc2cc1NC(=O)c1cccc(C(F)(F)F)n1` [I-288], for which the 50% degradation concentration (DC50) is 10 to 50 nM.

`Cn1c(=O)n(C2CCC(=O)NC2=O)c2cccc(C3CCN(C[C@H]4CC[C@H](N5Cc6cc(NC(=O)c7cccc(C(F)(F)F)n7)c(N7C[C@@H]8C[C@H]7CO8)cc6C5=O)CC4)CC3)c21` (some centres unmarked) [I-27] displayed a DC50 below 10 nM.

`Cc1cc2nn([C@H]3CC[C@H](CN4CCN(c5cccc6c5n(C)c(=O)n6[C@H]5CCC(=O)NC5=O)CC4)CC3)cc2cc1NC(=O)c1cccc(C(F)(F)F)n1` [I-399, N-[2-[4-[[4-[1-[(3S)-2,6-dioxo-3-piperidyl]-3-methyl-2-oxo-benzimidazol-4-yl]piperazin-1-yl]methyl]cyclohexyl]-6-methyl-indazol-5-yl]-6-(trifluoromethyl)pyridine-2-carboxamide]: the DC50 was in the range of 10 to 50 nM.

The molecule `COc1cc2nn([C@H]3CC[C@H](CN4CCC(c5c(Cl)ccc6c5n(C)c(=O)n6C5CCC(=O)NC5=O)CC4)CC3)cc2cc1NC(=O)c1cccc(C(F)(F)F)n1` (some centres unmarked) [I-37] had a DC50 below 10 nM.

For the molecule `COc1cc2nn([C@H]3CC[C@H](CN4CCN(c5cccc6c5n(C)c(=O)n6C5CCC(=O)NC5=O)C[C@H]4C)CC3)cc2cc1NC(=O)c1cccc(C(F)(F)F)n1` (some centres unmarked) [I-243], the DC50 was below 10 nM.

In turn, `COc1cc(NC(=O)c2cccc(C(F)(F)F)n2)cc2cn([C@H]3CC[C@H](CN4CCC(c5cccc6c(N7CCC(=O)NC7=O)cncc56)CC4)CC3)nc12` [I-221] registered a DC50 below 10 nM.

Turning to `Cn1c(=O)n(C2CCC(=O)NC2=O)c2cccc(N3CCN(C[C@H]4CC[C@H](n5cc6cc(NC(=O)c7cccc(C(F)(F)F)n7)c(N7CCC7)cc6n5)CC4)CC3)c21` (some centres unmarked) [I-387], the 50% degradation concentration (DC50) was in the range of 10 to 50 nM.

With `CC(C)(O)c1cc2nc([C@H]3CC[C@H](C(=O)N4CCC5(CC4)CC(CCNc4cccc6c4C(=O)N(C4CCC(=O)NC4=O)C6=O)C5)CC3)sc2cc1NC(=O)c1cccc(C#N)n1` (some centres unmarked) [I-430], the DC50 fell in the range of 100 to 200 nM.

(Values after patent US12150995B2, “IRAK degraders and uses thereof” (Kymera Therapeutics, Inc., priority 2020, dated 2024).)
